Measured values: PMC4823704, “Trastuzumab-grafted PAMAM dendrimers for the selective delivery of anticancer drugs to HER2-positive breast cancer” (Scientific Reports, 2016)

What was measured:
MDA-MB-453 cells = assay: Annexin V-FITC/PI apoptosis assay; assay type: cell-based, human; conditions: 56 ng/mL, 24 h
Method: To evaluate apoptosis and necrosis, we used Annexin V-FITC/PI assays, as per the manufacturer’s protocols. Briefly, MDA-MB-453 cells (1 × 10^6 cells/well) were seeded in six-well plates and maintained at 37 °C in 5% CO2 and a 95% humidified atmosphere. The medium was replaced with freshly prepared medium containing drug-loaded formulations. Untreated cells were used as controls. After 24 h, cells were washed twice with PBS and resuspended in 500 μL of binding buffer. We added 5 μL of FITC-conjugated Annexin V and 10 μL of PI, and incubated cells for 15 min at room temperature in the dark. Cells were then analyzed by a Muse™ Cell Analyzer (Merck-Millipore, Germany) and the extent of apoptosis and necrosis was determined.

[1] = patients, p = 0.03; cited from earlier work
[2] = system: MDA-MB-453 cells (HER2-positive); assay: Anti-proliferation assay (MTT); assay type: cell-based; conditions: Homo sapiens
Method: (§1) Cells were grown in DMEM medium supplemented with 10% fetal bovine serum, 100 U/mL penicillin, […] streptomycin and 2 mM/L L-glutamine. Cells were maintained at 37 °C in 5% CO2.
(§2) Cells were seeded in 96-well plates at a density of 5 × 10^3 cells per well in 100 μL of medium. […] Media were then replaced with serum-free DMEM containing MTT (0.5 mg/mL), then cells were incubated for 4 h. Media were removed and 150 μL of DMSO was added to dissolve formazan crystals. Absorbance was measured at 570 nm using a microplate reader. Untreated cells were used as a negative control (100% viability). IC50 was calculated by fitting the curve of cell viability against the drug concentration.

[3] = system: MDA-MB-231 cells (HER2-negative); assay: Anti-proliferation assay (MTT); assay type: cell-based, human
Method: as §1, §2

Q: Which results are given for `CC(=O)O[C@@]12CO[C@@H]1C[C@H](O)[C@@]1(C)C(=O)[C@H](O)C3=C(C)[C@@H](OC(=O)[C@H](O)[C@@H](NC(=O)OC(C)(C)C)c4ccccc4)C[C@@](O)([C@@H](OC(=O)c4ccccc4)[C@H]21)C3(C)C` [DTX, docetaxel]?
A: live cells (MDA-MB-453 cells): 83.1%; total percentage of apoptotic cells (MDA-MB-453 cells): 16.5%; survival [1]: 22.7 months; viability at 0.125 µg/mL ([2]; 125 ng/mL drug concentration, 48 h, MDA-MB-453, read-out: cell viability): 69%; IC50 ([2]; MDA-MB-453, 48 h of incubation): > 0.25 µg/mL; cell viability ([3]; 48 h, MDA-MB-231): 61.9%; IC50 ([3]; Homo sapiens, MDA-MB-231, 48 h of incubation): > 0.25 µg/mL
